Results on one compound are retold here after patent publication US9309201B2, “Process for preparating ivabradine hydrochloride form IV and methods of treatment of disease using ivabradine hydrochloride form IV” (URQUIMA, S.A., priority 2011, dated 2016).

The data set can be described thus: Check for transformation of crystalline Form IV after tablet manufacture. The data set is classed as physicochemical. The protocol:
All the components, with the exception of magnesium stearate and silica colloidal anhydrous, were mixed. Finally, silica colloidal anhydrous and magnesium stearate were added and mixed. The blend was compressed in an excentric tabletting machine.
All the components with the exception of magnesium stearate and silica colloidal anhydrous were mixed and granulated using ethanol as a granulating solvent. Then a wet calibration of the granules was performed. The obtained granules were dried followed by a dry calibration of the granules. Thereafter, silica colloidal anhydrous and magnesium stearate were added and mixed. The lubricated granulate was compressed in an eccentric tabletting machine.
Finally, tablets were coated using conventional coating agents until a weight increase of approximately 3%.

Structures can show the parent of a compound that is named as a salt.

Turning to `COc1cc2c(cc1OC)CC(=O)N(CCCN(C)C[C@H]1Cc3cc(OC)c(OC)cc31)CC2` [Form IV of ivabradine hydrochloride, ivabradine hydrochloride], the “transformation of the crystalline Form IV in tablets” value (Example 26 tablets, blend compressed directly in an excentric tabletting machine) was “absence of any transformation”. In addition, the “transformation of the crystalline Form IV in film-coated tablets” value (Example 27 tablets, wet granulation with ethanol, drying, compression, coating to approximately 3% weight increase) was “absence of any transformation”.
